Target: PI3Kδ (p110δ/p85α) (Homo sapiens (Human), UniProt O00329)
Assay: PI3Kδ scintillation proximity assay (Example A3)
Assay type: biochemical
Settings: assay not given
Experimental: [γ-^33P]ATP (10 mCi/mL) was purchased from Perkin-Elmer (Waltham, Mass.). […] PI3Kδ (p110δ/p85α) was purchased from Millipore (Bedford, Mass.). ATP, MgCl2, DTT, EDTA, MOPS and CHAPS were purchased from Sigma-Aldrich (St. Louis, Mo.). Wheat Germ Agglutinin (WGA) YSi SPA Scintillation Beads was purchased from GE healthcare life sciences (Piscataway, N.J.).
The kinase reaction was conducted in polystyrene 384-well matrix white plate from Thermo Fisher Scientific in a final volume of 25 μL. Inhibitors were first diluted serially in DMSO and added to the plate wells before the addition of other reaction components. The final concentration of DMSO in the assay was 0.5%. The PI3K assays were carried out at room temperature in 20 mM MOPS, pH 6.7, 10 mM MgCl2, 5 mM DTT and CHAPS 0.03%. Reactions were initiated by the addition of ATP, the final reaction mixture consisted of 20 μM PIP2, 20 μM ATP, 0.2 μCi [γ-^33P] ATP, 4 nM PI3Kδ. […] 25 mM EDTA, 400 µM ATP. The final concentration of SPA beads was 1.0 mg/mL. After the plate sealing, plates were shaken overnight at room temperature and centrifuged at 1800 rpm for 10 minutes, the radioactivity of the product was determined by scintillation counting on Topcount (Perkin-Elmer). IC50 determination was performed by fitting the curve of percent control activity versus the log of the inhibitor concentration using the GraphPad Prism 3.0 software.

PI3Kδ (p110δ/p85α), sequence (O00329 whole entry): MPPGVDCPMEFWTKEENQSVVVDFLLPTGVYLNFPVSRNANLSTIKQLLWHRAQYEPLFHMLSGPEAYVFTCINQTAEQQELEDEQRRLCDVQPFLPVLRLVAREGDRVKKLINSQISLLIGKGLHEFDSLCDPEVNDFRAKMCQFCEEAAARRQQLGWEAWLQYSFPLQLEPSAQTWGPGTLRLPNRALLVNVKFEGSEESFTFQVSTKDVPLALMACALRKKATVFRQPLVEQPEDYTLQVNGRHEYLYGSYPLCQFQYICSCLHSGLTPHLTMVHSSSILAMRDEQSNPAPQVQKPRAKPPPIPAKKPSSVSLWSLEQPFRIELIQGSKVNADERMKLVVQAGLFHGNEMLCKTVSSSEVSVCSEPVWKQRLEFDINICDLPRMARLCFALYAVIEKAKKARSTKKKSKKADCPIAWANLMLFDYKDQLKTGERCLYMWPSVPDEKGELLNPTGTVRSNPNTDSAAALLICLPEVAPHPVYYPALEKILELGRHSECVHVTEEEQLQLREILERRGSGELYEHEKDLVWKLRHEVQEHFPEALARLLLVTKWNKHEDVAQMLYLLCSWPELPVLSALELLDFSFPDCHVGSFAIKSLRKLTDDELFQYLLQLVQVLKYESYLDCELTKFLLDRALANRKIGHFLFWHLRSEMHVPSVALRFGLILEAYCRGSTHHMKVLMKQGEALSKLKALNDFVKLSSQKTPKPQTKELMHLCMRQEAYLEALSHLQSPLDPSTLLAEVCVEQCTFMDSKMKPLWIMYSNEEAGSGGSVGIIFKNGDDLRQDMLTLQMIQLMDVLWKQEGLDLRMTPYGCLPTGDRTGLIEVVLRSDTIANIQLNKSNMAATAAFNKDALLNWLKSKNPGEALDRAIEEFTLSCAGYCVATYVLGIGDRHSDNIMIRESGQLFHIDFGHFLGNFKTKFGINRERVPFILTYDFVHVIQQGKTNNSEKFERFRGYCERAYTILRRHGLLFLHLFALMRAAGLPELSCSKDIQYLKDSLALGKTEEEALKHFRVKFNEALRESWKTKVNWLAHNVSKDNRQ
PI3Kδ (p110δ/p85α), sequence (P27986 whole entry partner): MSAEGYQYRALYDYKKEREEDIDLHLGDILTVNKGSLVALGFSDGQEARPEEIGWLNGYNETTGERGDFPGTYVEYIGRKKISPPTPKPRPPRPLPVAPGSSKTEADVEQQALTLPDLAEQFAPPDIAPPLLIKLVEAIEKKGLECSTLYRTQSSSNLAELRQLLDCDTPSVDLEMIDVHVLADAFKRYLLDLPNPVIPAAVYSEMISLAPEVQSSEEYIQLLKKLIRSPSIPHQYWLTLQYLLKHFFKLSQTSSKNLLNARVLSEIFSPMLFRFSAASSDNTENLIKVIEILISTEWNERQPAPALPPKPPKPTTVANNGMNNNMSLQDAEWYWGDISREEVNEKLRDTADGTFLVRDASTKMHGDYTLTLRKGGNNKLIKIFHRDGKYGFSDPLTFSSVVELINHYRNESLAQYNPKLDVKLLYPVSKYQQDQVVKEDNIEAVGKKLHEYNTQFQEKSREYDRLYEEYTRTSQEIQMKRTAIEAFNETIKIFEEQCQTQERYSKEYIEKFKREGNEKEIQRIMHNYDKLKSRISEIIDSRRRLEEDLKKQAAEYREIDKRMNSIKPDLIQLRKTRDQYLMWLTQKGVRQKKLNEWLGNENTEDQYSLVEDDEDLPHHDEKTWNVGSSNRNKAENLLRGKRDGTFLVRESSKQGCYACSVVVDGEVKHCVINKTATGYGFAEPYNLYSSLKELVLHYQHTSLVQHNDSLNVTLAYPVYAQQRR

relative activity among the four separated stereoisomers (peaks 1-4): most active enantiomer
SMILES: CCOc1c(C(C)n2nc(C)c3c(N)ncnc32)cc(Cl)c(F)c1C1CNC(=O)O1 (stereo not shown) [Example 357, 5-{3-[1-(4-amino-3-methyl-1H-pyrazolo[3,4-d]pyrimidin-1-yl)ethyl]-5-chloro-2-ethoxy-6-fluorophenyl}-1,3-oxazolidin-2-one]

Source: patent publication US11433071B2, “Heterocyclylamines as PI3K inhibitors” (Incyte Corporation, priority 2011, dated 2022)
